According to patent US9701689B2, “Substituted pyridines and pyridazines as CCR10 receptor inhibitors” (KYOWA HAKKO KIRIN CO., LTD., priority 2012, dated 2017):

molecular target: T1, human CCR10 (Homo sapiens, UniProt P46092); experiment: CCR10 antagonistic effect: calcium assay of human CCR10 (CTACK-induced increase of intracellular calcium in hCCR10G16 cells); assay type: cell-based; settings: at a concentration of not more than 1000 nmol/L; human CCR10-expressing hCCR10G16 cells, 300 nmol/L CTACK added; read-out: inhibition of increase in the calcium ion concentration
T1 construct: expressed in transfected cells; host or cells: KJMGER8 cells (Namalwa cell-derived line), beta-estradiol-induced; hCCR10G16 cells
T1 sequence (P46092 1-362): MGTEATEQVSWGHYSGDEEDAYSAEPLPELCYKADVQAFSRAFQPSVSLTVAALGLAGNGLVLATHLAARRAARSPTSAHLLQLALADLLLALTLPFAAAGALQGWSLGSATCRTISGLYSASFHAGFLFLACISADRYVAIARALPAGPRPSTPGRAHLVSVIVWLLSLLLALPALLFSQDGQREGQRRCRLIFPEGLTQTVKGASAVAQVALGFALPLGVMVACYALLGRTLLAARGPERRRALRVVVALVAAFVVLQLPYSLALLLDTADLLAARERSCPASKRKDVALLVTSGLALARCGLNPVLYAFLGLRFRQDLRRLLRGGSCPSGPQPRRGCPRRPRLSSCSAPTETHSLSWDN
In short: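 KJMGER8-derived hCCR10G16 cells (CCR10 plus Gα16, induced 24 h with 10 nmol/L β-estradiol), Fluo-3 loaded, preincubated with compound 30 min at 37 °C. Stimulated with CTACK (300 nmol/L solution before addition); calcium read ~5 min by FDSS, max−min fluorescence; % inhibition vs control.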

Inhibition at up to 1 µM, ≥ 50%:
COc1ccc(Cl)cc1Nc1cc(S(N)(=O)=O)ncc1C(=O)N1CCC(c2ccc(F)cc2)CC1 [Compound 69, 4-(5-chloro-2-methoxyphenylamino)-5-[4-(4-fluorophenyl)piperidine-1-carbonyl]pyridine-2-sulfonamide]
CCOC(=O)NS(=O)(=O)c1cc(Nc2cc(C)c(Cl)cc2C)c(C(=O)N2CCC(c3ccc(F)cc3)CC2)cn1 [Compound 19, ethyl 4-(4-chloro-2,5-dimethylphenylamino)-5-[4-(4-fluorophenyl)piperidine-1-carbonyl]pyridin-2-ylsulfonylcarbamate]
CCNC(=O)NS(=O)(=O)c1ncc(C(=O)N2CCC(c3ccc(F)cc3)CC2)c(Nc2ccccc2C)c1C [Compound 226, N-(ethylcarbamoyl)-5-[4-(4-fluorophenyl)piperidine-1-carbonyl]-3-methyl-4-(o-tolylamino)pyridine-2-sulfonamide]
Cc1cccc(Nc2c(C(=O)N3CC4CN(c5ccc(F)cc5)CC4C3)cnc(S(N)(=O)=O)c2Cl)c1 (stereo not drawn) [Compound 213, 3-chloro-5-[5-(4-fluorophenyl)octahydropyrrolo[3,4-c]pyrrole-2-carbonyl]-4-(m-tolylamino)pyridine-2-sulfonamide]
Cc1cc(F)ccc1Nc1cc(S(=O)(=O)N2CCOCC2)ncc1C(=O)N1CCC(c2ccc(F)cc2)CC1 [Compound 122, [4-(4-fluoro-2-methylphenylamino)-6-(morpholinosulfonyl)pyridin-3-yl][4-(4-fluorophenyl)piperidin-1-yl]methanone]
COc1ccc(Nc2c(C(=O)N3CCC(c4ccc(F)cc4)CC3)cnc(S(=O)(=O)Nc3ccon3)c2C)c(C)c1 [Compound 234, 5-[4-(4-fluorophenyl)piperidine-1-carbonyl]-N-(isoxazol-3-yl)-4-(4-methoxy-2-methylphenylamino)-3-methylpyridine-2-sulfonamide]
Cc1cc(F)ccc1Nc1cc(S(=O)(=O)Nc2cscn2)ncc1C(=O)N1CCC(c2ccc(F)cc2)CC1 [Compound 154, 4-(4-fluoro-2-methylphenylamino)-5-[4-(4-fluorophenyl)piperidine-1-carbonyl]-N-(thiazol-4-yl)pyridine-2-sulfonamide]
NS(=O)(=O)c1ncc(C(=O)N2CCC(c3ccc(F)cc3)CC2)c(Nc2ccc(Cl)cc2F)c1Cl [Compound 28, 3-chloro-4-(4-chloro-2-fluorophenylamino)-5-[4-(4-fluorophenyl)piperidine-1-carbonyl]pyridine-2-sulfonamide]
CN(Nc1c(C(=O)N2CCC(c3ccc(F)cc3)CC2)cnc(S(N)(=O)=O)c1Cl)c1ccccc1 [Compound 282, 3-chloro-5-[4-(4-fluorophenyl)piperidine-1-carbonyl]-4-(2-methyl-2-phenylhydrazinyl)pyridine-2-sulfonamide]
NS(=O)(=O)c1ncc(C(=O)N2CCC(c3ccc(F)cc3)CC2)c(NCc2ccccc2)c1Cl [Compound 44, 4-(benzylamino)-3-chloro-5-[4-(4-fluorophenyl)piperidine-1-carbonyl]pyridine-2-sulfonamide]
NS(=O)(=O)c1cc(Nc2ccccc2)c(C(=O)N2CCC(c3ccc(F)cc3)CC2)cn1 [Compound 95, 5-[4-(4-fluorophenyl)piperidine-1-carbonyl]-4-(phenylamino)pyridine-2-sulfonamide]
CCNC(=O)NS(=O)(=O)c1cc(Nc2cc(C)ccc2Cl)c(C(=O)N2CCC(c3ccc(F)cc3)CC2)cn1 [Compound 161, 4-(2-chloro-5-methylphenylamino)-N-(ethylcarbamoyl)-5-[4-(4-fluorophenyl)piperidine-1-carbonyl]pyridine-2-sulfonamide]
N#Cc1ccc(C#N)c(Nc2c(C(=O)N3CCC(c4ccc(F)cc4)CC3)cnc(S(N)(=O)=O)c2Cl)c1 [Compound 288, 3-chloro-4-(2,5-dicyanophenylamino)-5-[4-(4-fluorophenyl)piperidine-1-carbonyl]pyridine-2-sulfonamide]
Cc1c(F)cccc1Nc1cc(S(N)(=O)=O)ncc1C(=O)N1CCC(c2ccc(F)cc2)CC1 [Compound 60, 4-(3-fluoro-2-methylphenylamino)-5-[4-(4-fluorophenyl)piperidine-1-carbonyl]pyridine-2-sulfonamide]
COC1(c2ccc(F)cc2)CCN(C(=O)c2cnc(S(N)(=O)=O)c(C)c2Nc2ccccc2C)CC1 [Compound 304, 5-[4-(4-fluorophenyl)-4-methoxypiperidine-1-carbonyl]-3-methyl-4-(o-tolylamino)pyridine-2-sulfonamide]
Cc1ccc(Nc2c(C(=O)N3CCC(c4ccc(F)cc4)CC3)cnc(S(=O)(=O)Nc3cc(C)ns3)c2C)cc1 [Compound 300, 5-[4-(4-fluorophenyl)piperidine-1-carbonyl]-3-methyl-N-(3-methylisothiazol-5-yl)-4-(p-tolylamino)pyridine-2-sulfonamide]
Cc1ccc(Oc2c(C(=O)N3CCC(c4ccc(F)cc4)CC3)cnc(S(N)(=O)=O)c2C)cc1 [Compound 289, 5-[4-(4-fluorophenyl)piperidine-1-carbonyl]-3-methyl-4-(p-tolyloxy)pyridine-2-sulfonamide]
Cc1cc(F)ccc1Nc1cc(S(=O)(=O)NC(=O)OC(C)C)ncc1C(=O)N1CCC(c2ccc(F)cc2)CC1 [Compound 175, isopropyl 4-(4-fluoro-2-methylphenylamino)-5-[4-(4-fluorophenyl)piperidine-1-carbonyl]pyridin-2-ylsulfonylcarbamate]
NS(=O)(=O)c1ncc(C(=O)N2CCC(c3ccc(F)cc3)CC2)c(Nc2ccc(Cl)nc2Cl)c1Cl [Compound 327, 3-chloro-4-(2,6-dichloropyridin-3-ylamino)-5-[4-(4-fluorophenyl)piperidine-1-carbonyl]pyridine-2-sulfonamide]
Cc1ccc(Nc2c(C(=O)N3CCC(c4ccc(F)cc4)CC3)cnc(S(=O)(=O)Nc3ccon3)c2C)cc1C [Compound 263, 4-(3,4-dimethylphenylamino)-5-[4-(4-fluorophenyl)piperidine-1-carbonyl]-N-(isoxazol-3-yl)-3-methylpyridine-2-sulfonamide]
NS(=O)(=O)c1cc(Nc2ccc(Cl)cc2Cl)c(C(=O)N2CCC(c3ccc(F)cc3)CC2)cn1 [Compound 81, 4-(2,4-dichlorophenylamino)-5-[4-(4-fluorophenyl)piperidine-1-carbonyl]pyridine-2-sulfonamide]
Cc1cc(F)ccc1Nc1cc(S(=O)(=O)NC(=O)NC(C)C)ncc1C(=O)N1CCC(c2ccc(F)cc2)CC1 [Compound 171, 4-(4-fluoro-2-methylphenylamino)-5-[4-(4-fluorophenyl)piperidine-1-carbonyl]-N-(isopropylcarbamoyl)pyridine-2-sulfonamide]
Cc1cc(F)ccc1Nc1cc(S(=O)(=O)NCC(=O)N2CCOCC2)ncc1C(=O)N1CCC(c2ccc(F)cc2)CC1 [Compound 130, 4-(4-fluoro-2-methylphenylamino)-5-[4-(4-fluorophenyl)piperidine-1-carbonyl]-N-(2-morpholino-2-oxoethyl)pyridine-2-sulfonamide]
CC(=O)N1CCN(S(=O)(=O)c2cc(Nc3ccc(F)cc3C)c(C(=O)N3CCC(c4ccc(F)cc4)CC3)cn2)CC1 [Compound 124, 1-{4-{4-(4-fluoro-2-methylphenylamino)-5-[4-(4-fluorophenyl)piperidine-1-carbonyl]pyridin-2-ylsulfonyl}piperazin-1-yl}ethanone]
Cc1cc(Cl)ccc1Nc1cc(S(N)(=O)=O)ncc1C(=O)N1CCC(c2ccccc2)CC1 [Compound 49, 4-(4-chloro-2-methylphenylamino)-5-(4-phenylpiperidine-1-carbonyl)pyridine-2-sulfonamide]
Cc1cc(F)ccc1Nc1c(C(=O)N2CCC(c3ccc(F)cc3)CC2)cnc(S(=O)(=O)Nc2ccn(C)n2)c1Cl [Compound 39, 3-chloro-4-(4-fluoro-2-methylphenylamino)-5-[4-(4-fluorophenyl)piperidine-1-carbonyl]-N-(1-methyl-1H-pyrazol-3-yl)pyridine-2-sulfonamide]
NS(=O)(=O)c1ncc(C(=O)N2CCC(c3ccc(F)cc3)CC2)c(NC2(c3ccccc3)CC2)c1Cl [Compound 230, 3-chloro-5-[4-(4-fluorophenyl)piperidine-1-carbonyl]-4-(1-phenylcyclopropylamino)pyridine-2-sulfonamide]
